In US7622469B2, “2,4-diamino-1,3,5-triazine derivatives” (Hamari Chemicals, Ltd., priority 2002, dated 2009):

Columns and labels:
MRSA 97-115 [1] = assay: Antibacterial activity test (MIC); type: cell-based, methicillin-resistant Staphylococcus aureus; conditions: Mueller-Hinton Broth, 37° C., 20 to 24 hours
Summary of the method: (§1)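 Broth dilution MIC per the Japanese Society of Chemotherapy standard method in Mueller-Hinton Broth. Strains were grown statically at 37° C for 16 to 20 hours and diluted in sterile saline to 10^5/ml. Compounds were dissolved in methanol and serially diluted twofold in medium, giving 100 μg/ml and 2^n-fold (n=−10 to 1).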

MRSA KM 97-108 [2] = assay: Antibacterial activity test (MIC); type: cell-based, methicillin-resistant Staphylococcus aureus; conditions: Mueller-Hinton Broth, 37° C., 20 to 24 hours
Summary of the method: as §1

MRSA KM 97-53 [3] = assay: Antibacterial activity test (MIC); type: cell-based, methicillin-resistant Staphylococcus aureus; conditions: Mueller-Hinton Broth, 37° C., 20 to 24 hours
Summary of the method: as §1

E. coli NIHJ JC-2 [4] = assay: Antibacterial activity test (MIC); type: cell-based; conditions: Mueller-Hinton Broth, 37° C., 20 to 24 hours
Summary of the method: as §1

P. aeruginosa KM 97-5 [5] = assay: Antibacterial activity test (MIC); type: cell-based; conditions: Mueller-Hinton Broth, 37° C., 20 to 24 hours
Summary of the method: as §1

P. aeruginosa No. 12 [6] = assay: Antibacterial activity test (MIC); type: cell-based; conditions: Mueller-Hinton Broth, 37° C., 20 to 24 hours
Summary of the method: as §1

P. aeruginosa PAO-1 [7] = assay: Antibacterial activity test (MIC); type: cell-based; conditions: Mueller-Hinton Broth, 37° C., 20 to 24 hours
Summary of the method: as §1

S. aureus 209PJC [8] = assay: Antibacterial activity test (MIC); type: cell-based; conditions: Mueller-Hinton Broth, 37° C., 20 to 24 hours
Summary of the method: as §1

VRE 49 [9] = assay: Antibacterial activity test (MIC); type: cell-based, vancomycin-resistant enterococci; conditions: Mueller-Hinton Broth, 37° C., 20 to 24 hours
Method: Regarding compounds obtained in respective Working Examples, in order to investigate antibacterial activity, minimal inhibitory concentration (MIC) was determined according to a standard method of Japanese Society of Chemotherapy.
As a test bacterium, nine kinds of S. aureus 209PJC, MRSA 97-115, MRSA KM 97-53, MRSA KM97-108, VRE 49, E. coli NIHJ JC-2, P. aeruginosa PAO-1, P. aeruginosa No. 12, P. aeruginosa KM97-5 were used and, as a medium, Mueller-Hinton Broth (DIFCO) was used. One platinum loop of a test bacterium was inoculated into 20 ml of a medium, and static culture was carried out at 37° C. for 16 to 20 hours, and then each bacterium species was diluted with a sterilized physiological saline to 10^5/ml, which was used as a test bacterium solution.
Then, each compound was dissolved in methanol, subjected to ½ stepwise dilution with a medium to prepare a medium for measuring sensitivity, and each 2 ml was dispensed into a test tube. A compound concentration in a medium was adjusted to 100 μg/ml and its 2^n-fold (n=−10 to 1).
Numerical values in Tables represent MIC expressed in μg/ml unit.

E. coli NIHJ JC-2 [10] = assay: Bactericidal activity test (MBC, phenol coefficient measuring method); type: cell-based
Method: (§2) As a test bacterium, the same bacteria species as those of the antibacterial activity test were used; as a medium to be used, a SCD medium (manufactured by Eiken Chemical Co., Ltd.) was used for pre-culture medium; and a heart infusion bouillon medium (manufactured by Eiken Chemical Co., Ltd.) was used as a medium for growing a live bacterium in a test solution after bactericidal treatment. One platinum loop of a test bacterium was inoculated into 20 ml of a medium, and static culture was carried out at 37° C. for 18 to 20 hours, and the cells were adjusted with a sterilized physiological saline to 1×10^7/ml, which was used as a test bacterium solution.
(§3) Then, a solution of each compound in methanol was subjected to ½ stepwise dilution with sterilized water, each 5 ml was dispensed into a test tube, 0.5 ml of the previously prepared test bacterium solution was added thereto, and the mixture was blended well. After 1 minute, 3 minutes and 5 minutes has passed, 5 μl of the test solution was collected and inoculated into 2 ml of a heart infusion bouillon medium, this was cultured at 37° C. for 40 to 48 hours, and the presence or absence of growth of a bacterium was determined. A test was performed three times, a minimum concentration at which growth of a bacterium was not recognized two or more times was adopted as a minimal bactericidal concentration (MBC value).
(§4) Numerical values in Tables represent MBC expressed in μg/ml unit.

P. aeruginosa KM 97-5 [11] = assay: as above; type: cell-based
Method: as §2, §3, §4

P. aeruginosa No. 12 [12] = assay: as above; type: cell-based
Method: as §2, §3, §4

P. aeruginosa PAO-1 [13] = assay: as above; type: cell-based
Method: as §2, §3, §4

S. aureus 209PJC [14] = assay: as above; type: cell-based
Method: as §2, §3, §4

MRSA 97-115 [15] = assay: as above; type: cell-based, methicillin-resistant Staphylococcus aureus
Method: as §2, §3, §4

MRSA KM 97-108 [16] = assay: as above; type: cell-based, methicillin-resistant Staphylococcus aureus
Method: as §2, §3, §4

MRSA KM 97-53 [17] = assay: as above; type: cell-based, methicillin-resistant Staphylococcus aureus
Method: as §2, §3, §4

VRE 49 [18] = assay: as above; type: cell-based, vancomycin-resistant enterococci
Method: as §2, §3, §4

Structure (SMILES)	minimal inhibitory concentration (MIC) (MRSA 97-115 [1]) [µg/mL]	minimal inhibitory concentration (MIC) (MRSA KM 97-108 [2]) [µg/mL]	minimal inhibitory concentration (MIC) (MRSA KM 97-53 [3]) [µg/mL]	minimal inhibitory concentration (MIC) (E. coli NIHJ JC-2 [4]) [µg/mL]	minimal inhibitory concentration (MIC) (P. aeruginosa KM 97-5 [5]) [µg/mL]	minimal inhibitory concentration (MIC) (P. aeruginosa No. 12 [6]) [µg/mL]	minimal inhibitory concentration (MIC) (P. aeruginosa PAO-1 [7]) [µg/mL]	minimal inhibitory concentration (MIC) (S. aureus 209PJC [8]) [µg/mL]	minimal inhibitory concentration (MIC) (VRE 49 [9]) [µg/mL]	minimal bactericidal concentration (MBC) (E. coli NIHJ JC-2 [10]; 1 min) [µg/mL]	minimal bactericidal concentration (MBC) (E. coli NIHJ JC-2 [10]; 3 min) [µg/mL]	minimal bactericidal concentration (MBC) (E. coli NIHJ JC-2 [10]; 5 min) [µg/mL]	minimal bactericidal concentration (MBC) (P. aeruginosa KM 97-5 [11]; 1 min) [µg/mL]	minimal bactericidal concentration (MBC) (P. aeruginosa KM 97-5 [11]; 3 min) [µg/mL]	minimal bactericidal concentration (MBC) (P. aeruginosa KM 97-5 [11]; 5 min) [µg/mL]	minimal bactericidal concentration (MBC) (P. aeruginosa No. 12 [12]; 1 min) [µg/mL]	minimal bactericidal concentration (MBC) (P. aeruginosa No. 12 [12]; 3 min) [µg/mL]	minimal bactericidal concentration (MBC) (P. aeruginosa No. 12 [12]; 5 min) [µg/mL]	minimal bactericidal concentration (MBC) (P. aeruginosa PAO-1 [13]; 1 min) [µg/mL]	minimal bactericidal concentration (MBC) (P. aeruginosa PAO-1 [13]; 3 min) [µg/mL]	also measured
CC(=O)O.CCCCCCCCCNC1=NC(C)(C)N=C(NCc2ccccc2)N1 [compound 48]	1.6	1.6	0.8	12.5	25	25	12.5	0.8	0.8	6.3	6.3	3.1	3.1	3.1	3.1	25	12.5	12.5	6.3	3.1	minimal bactericidal concentration (MBC) (P. aeruginosa PAO-1 [13]; 5 min): 3.1 µg/mL; minimal bactericidal concentration (MBC) (S. aureus 209PJC [14]; 1 min): 12.5 µg/mL; minimal bactericidal concentration (MBC) (S. aureus 209PJC [14]; 3 min): 6.3 µg/mL; minimal bactericidal concentration (MBC) (S. aureus 209PJC [14]; 5 min): 6.3 µg/mL; minimal bactericidal concentration (MBC) (MRSA 97-115 [15]; 1 min): 12.5 µg/mL; minimal bactericidal concentration (MBC) (MRSA 97-115 [15]; 3 min): 6.3 µg/mL; minimal bactericidal concentration (MBC) (MRSA 97-115 [15]; 5 min): 6.3 µg/mL; minimal bactericidal concentration (MBC) (MRSA KM 97-108 [16]; 1 min): 50 µg/mL; minimal bactericidal concentration (MBC) (MRSA KM 97-108 [16]; 3 min): 50 µg/mL; minimal bactericidal concentration (MBC) (MRSA KM 97-108 [16]; 5 min): 25 µg/mL; minimal bactericidal concentration (MBC) (MRSA KM 97-53 [17]; 1 min): 50 µg/mL; minimal bactericidal concentration (MBC) (MRSA KM 97-53 [17]; 3 min): 25 µg/mL; minimal bactericidal concentration (MBC) (MRSA KM 97-53 [17]; 5 min): 25 µg/mL; minimal bactericidal concentration (MBC) (VRE 49 [18]; 1 min): 25 µg/mL; minimal bactericidal concentration (MBC) (VRE 49 [18]; 3 min): 12.5 µg/mL; minimal bactericidal concentration (MBC) (VRE 49 [18]; 5 min): 12.5 µg/mL
CC(=O)O.CCCCCCCCNC1=NC(C)(C)N=C(NCc2ccc(C)cc2)N1 [compound 58]	0.4	1.6	1.6	12.5	25	25	12.5	0.4	1.6	12.5	6.3	6.3	6.3	3.1	3.1	6.3	6.3	3.1	12.5	6.3	minimal bactericidal concentration (MBC) (P. aeruginosa PAO-1 [13]; 5 min): 3.1 µg/mL; minimal bactericidal concentration (MBC) (S. aureus 209PJC [14]; 1 min): 6.3 µg/mL; minimal bactericidal concentration (MBC) (S. aureus 209PJC [14]; 3 min): 3.1 µg/mL; minimal bactericidal concentration (MBC) (S. aureus 209PJC [14]; 5 min): 3.1 µg/mL; minimal bactericidal concentration (MBC) (MRSA 97-115 [15]; 1 min): 25 µg/mL; minimal bactericidal concentration (MBC) (MRSA 97-115 [15]; 3 min): 25 µg/mL; minimal bactericidal concentration (MBC) (MRSA 97-115 [15]; 5 min): 12.5 µg/mL; minimal bactericidal concentration (MBC) (MRSA KM 97-108 [16]; 1 min): 50 µg/mL; minimal bactericidal concentration (MBC) (MRSA KM 97-108 [16]; 3 min): 50 µg/mL; minimal bactericidal concentration (MBC) (MRSA KM 97-108 [16]; 5 min): 25 µg/mL; minimal bactericidal concentration (MBC) (MRSA KM 97-53 [17]; 1 min): 50 µg/mL; minimal bactericidal concentration (MBC) (MRSA KM 97-53 [17]; 3 min): 50 µg/mL; minimal bactericidal concentration (MBC) (MRSA KM 97-53 [17]; 5 min): 25 µg/mL; minimal bactericidal concentration (MBC) (VRE 49 [18]; 1 min): 25 µg/mL; minimal bactericidal concentration (MBC) (VRE 49 [18]; 3 min): 25 µg/mL; minimal bactericidal concentration (MBC) (VRE 49 [18]; 5 min): 12.5 µg/mL
CC(=O)O.CCCCCCCCNC1=NC(C)(C)N=C(NCCCCCC)N1 [compound 68]	0.8	1.6	1.6	12.5	50	50	50	0.8	1.6	12.5	6.3	6.3	12.5	6.3	6.3	3.1	3.1	1.6	6.3	3.1	minimal bactericidal concentration (MBC) (P. aeruginosa PAO-1 [13]; 5 min): 1.6 µg/mL; minimal bactericidal concentration (MBC) (S. aureus 209PJC [14]; 1 min): 12.5 µg/mL; minimal bactericidal concentration (MBC) (S. aureus 209PJC [14]; 3 min): 6.3 µg/mL; minimal bactericidal concentration (MBC) (S. aureus 209PJC [14]; 5 min): 6.3 µg/mL; minimal bactericidal concentration (MBC) (MRSA 97-115 [15]; 1 min): 12.5 µg/mL; minimal bactericidal concentration (MBC) (MRSA 97-115 [15]; 3 min): 6.3 µg/mL; minimal bactericidal concentration (MBC) (MRSA 97-115 [15]; 5 min): 6.3 µg/mL; minimal bactericidal concentration (MBC) (MRSA KM 97-108 [16]; 1 min): 50 µg/mL; minimal bactericidal concentration (MBC) (MRSA KM 97-108 [16]; 3 min): 25 µg/mL; minimal bactericidal concentration (MBC) (MRSA KM 97-108 [16]; 5 min): 25 µg/mL; minimal bactericidal concentration (MBC) (MRSA KM 97-53 [17]; 1 min): 50 µg/mL; minimal bactericidal concentration (MBC) (MRSA KM 97-53 [17]; 3 min): 25 µg/mL; minimal bactericidal concentration (MBC) (MRSA KM 97-53 [17]; 5 min): 25 µg/mL; minimal bactericidal concentration (MBC) (VRE 49 [18]; 1 min): 25 µg/mL; minimal bactericidal concentration (MBC) (VRE 49 [18]; 3 min): 25 µg/mL; minimal bactericidal concentration (MBC) (VRE 49 [18]; 5 min): 12.5 µg/mL
